The values that follow come from US9125384B2, “Mouse having human leukemic stem cell and leukemic non-stem cell amplified therein, and method for production thereof” (RIKEN, priority 2007, dated 2015).

In data set [1] the test system is human AML cells in BM cavity and endosteal surface. Put plainly: Histology of femoral bone sections after Ara-C (HE, TUNEL, immunostaining). Type of data set: in vivo, mouse (NOD/SCID/IL2rγ^null) engrafted with human AML. The settings on record: day 3 after Ara-C injection, anti-hCD34/hCD38/osteopontin staining. The method, then:
Paraformaldehyde-fixed, decalcified, paraffin-embedded sections were prepared from femurs of the recipients transplanted with sorted hCD34^+hCD38^− AML BM cells. Each section was subjected to hematoxylin and eosin (HE) staining. TUNEL staining was performed according to standard procedures using ApopTag peroxidase in situ apoptosis detection kit (Intergene, Purchase, N.Y.) by Biopathology Institute (Oita, Japan). To determine the localization of the CD34^+ cell populations, sections were immunostained with mouse anti-hCD34 antibody (Immunotech, France) and rat anti-mouse osteopontin antibody (Immuno-Biological Laboratories, Tokyo, Japan) were used. For the quantitative localization of LSCs, enodosteal and central regions were defined as the zones within or outside twelve cells from the endosteum, respectively, as described previously (Nilsson, S. K., Johnston, H. M. & Coverdale, J. A. Spatial localization of transplanted hemopoietic stem cells: inferences for the localization of stem cell niches. Blood 97, 2293-2299 (2001)). […] A total of 10,065 cells were counted from femoral and tibial sections. For localization post-engraftment analysis, a total of 24,973 cells were counted using femoral and tibial sections prepared from recipients of BM hCD34^+hCD38^− cells from Cases 4, 10 and 11. […]

The nature of data set [2]: Adverse effect of Ara-C in vivo (hemoglobin, platelet count, plasma AST). The settings on record: 150 mg/kg Ara-C i.p.; day 8 after injection. The procedure: Intraperitoneal (i.p.) injection of 150 mg/kg Ara-C (Biogenesis, Poole, UK) was performed in NOD/SCID/IL2rγ^null recipients transplanted with 10^4 purified BM […] cells from Cases 4 (n=2) and 7 (n=4) at 12-16 weeks post-transplantation. PB was obtained at the time of injection (day 0) and every four days thereafter and MNCs were labeled with mouse anti-hCD45 and anti-hCD33 monoclonal antibodies to determine the fraction of hCD45^+hCD33^+ cells using flow cytometry. The number of AML cells/ml PB was determined by multiplying the fraction of PB hCD45^+CD33^+ cells with total PB leukocyte count/ml in each recipient. Hemoglobin concentration, platelet count and plasma aspartate aminotransferase (AST) levels were analyzed prior to and at 8 days after Ara-C administration.

The subject of data set [3] is hCD34^+hCD38^− LSCs vs non-stem AML cell fractions. Put plainly: Post-chemotherapy apoptosis analysis of BM AML cell fractions (Annexin V/7AAD flow cytometry). The settings on record: 150 mg/kg Ara-C i.p.; BM at day 3 after injection; n=3; p<0.05. Format: in vivo, mouse (NOD/SCID/IL2rγ^null) engrafted with human AML. The method, then: NOD/SCID/IL2rγ^null recipients transplanted with 10^4-10^5 sorted BM hCD34^+hCD38^− cells from Cases 4, 7 and 11 at 12-20 weeks post-transplantation were injected with 150 mg/kg Ara-C i.p. At day 3 after injection, BM was analyzed for the presence of apoptotic cells by first dividing the hCD34^+hCD38^−, hCD34^+hCD38^+ and hCD34^− fractions within the hCD45^+ gate and quantifying the viable population in each fraction by Annexin V and 7-amino-actinomycin D (7AAD) staining (BD Immunocytometry, San Jose, Calif.). Annexin V^−7AAD^− hCD45^+hCD34^+hCD38^− cells were sorted and 10^3 cells were injected intravenously into irradiated newborn NOD/SCID/IL2rγ^null recipients.
(In general: Flow cytometry measures light scatter and fluorescence of single cells or particles in a stream.)

Data set [4] concerns human AML cells (hCD45^+hCD33^+). Put plainly: In vivo anti-leukemic cytotoxicity of Ara-C in AML-engrafted NOD/SCID/IL2rγ^null recipients (PB AML cell count). The arrangement: species or system mouse (NOD/SCID/IL2rγ^null) engrafted with human AML.

“And” between values parts separate entries of the source, which are not always exact repeats. Equal values may be shown once. “Also recorded” adds a separate entry of the source.

As to `Nc1ccn([C@@H]2O[C@H](CO)[C@@H](O)[C@@H]2O)c(=O)n1` [Ara-C, cytosine arabinoside], the “localization of apoptotic and surviving cells in femoral bone sections” value in data set [1] was “preferential killing of cells in the middle of the BM cavity; also recorded: remain at the endosteal surface abutting murine osteoblasts; also recorded: marked segregation of apoptotic cells in the center of the bone marrow cavity”. Also, in data set [2], the “hematologic adverse effects (hemoglobin concentration, platelet count)” value was “Typical hematologic adverse effects; also recorded: anemia and thrombocytopenia in all treated mice”. In addition, in data set [3], the “chemosensitivity of hCD34^+hCD38^− LSCs compared with non-stem AML cell fractions (apoptosis)” value was “relative resistance to Ara-C; also recorded: more resistant to Ara-C; also recorded: relatively resistant to Ara-C treatment”. Moreover, the “time of nadir of AML count” value in data set [4] (single 150 mg/kg Ara-C i.p. on day 0, PB) lay in the range of 8 to 12 days. Further, the “time of recovery of PB AML cell count (relapse)” value in data set [4] (single 150 mg/kg Ara-C i.p. on day 0, PB, 150 mg/kg) was 28 to 32 days and 16 to 28 days. Besides, the “PB AML burden (hCD45^+hCD33^+ cell count per ml of PB)” value in data set [4] (single 150 mg/kg Ara-C i.p., 12-16 weeks post-transplantation, monitored every four days, 150 mg/kg) is “rapid decline in AML burden; also recorded: markedly reduced”.
